In brackets after ≈: the same amount, converted by molar mass.
Key:
MIF [1] = target: T1, MIF (Mus musculus, UniProt P34884); test: Oral bioavailability: ex vivo MIF enzymatic activity in liver, brain and lung after IP and PO dosing; design: species or system C57BL6 mice
T1 construct: from tissue; host or cells: mouse liver (A7); liver, lung and brain of C57BL6 mice (A20)
Experimental: The compounds were administered orally (PO) and intraperitoneally (IP) to healthy animals. The inhibition of the MIF liver enzymatic activity determined ex vivo following IP and PO dosing is similar, indicating high oral bioavailability. Furthermore, brain and lung tissues were collected and processed to determine MIF enzymatic activity in these organs. […] Inhibition of MIF enzyme was determined […] following dosing of MIF-002 at 40 mg/kg once a day for three days, both IP and PO (normal C57BL6 mice, n=3). Tissues were collected at sacrifice and processed. Liver, lung, and brain tissues were collected, processed, and used for the determination of MIF enzyme activity. Values are expressed as a percentage calculated using DMSO as control (no inhibition).
Two additional compounds were tested, MIF-035 and MIF-041.

MIF [2] = target: T1, MIF; test: MIF liver lysates enzymatic activity ex vivo (L-dopachrome tautomerase); conditions: mice; IP 1 mg in corn oil every day for 3 days; livers 6 hours after last injection; FIG. 1
Experimental: This experiment, using an ex-vivo approach and the tautomeric reaction of L-dopachrom, was designed to ascertain the level of inhibition of MIF following administration of the compounds of this invention via oral, IV, IP or any other route of administration. Mice were used in the example illustrated below, but other animals could be used as well. Groups of 3 mice were administered IP 1 mg of 4-IPP and ACT-002 resuspended in 100 μl of corn oil every day for 3 days. Mice were sacrificed 6 hours after the last injection and livers were harvested. ˜1 gram pieces of liver were lysed in PBS containing 1 mM NaVO4, 2 mM NaF and a protease inhibitor cocktail (Roche Biochemical, Indianapolis, Ind.) using dounce-homogenization on ice. 500 μg of liver lysates were added to a final volume of 700 μl PBS in plastic cuvettes. 4 mM L-3, 4-dihydroxyphenylalanine methyl ester and 8 mM sodium periodate (Sigma-Aldrich) were combined in a 3:2 ratio to form L-dopachrome methyl ester. 300 μL of L-dopachrome methyl ester was then immediately added to the cuvettes; the OD475 nm was measured 2 min and 4 min after addition of the L-dopachrome.

[3] = tested on: primary human T lymphocytes; test: Anti-CD3 induced T lymphocyte activation/proliferation (flow cytometry); format: cell-based; conditions: 25 μM
Experimental: In order to assess the ability of MIF antagonists to disrupt autoimmune-associated T cell activation, primary human T lymphocytes were prepared using standard Ficoll-gradient preparations. 1×10^6 lymphocytes/ml were resuspended in RPMI/10% FCS and plated onto anti-CD3 antibodies previously immobilized onto tissue culture plates. Control, vehicle control (0.1% DMSO), 25 μM 4-IPP or 25 μM ACT-003 were added to cells and allowed to incubate for 48 hours. Cells were lifted, washed and stained with anti-CD4 or anti-CD8 antibodies and then analyzed by flow cytometry.
To validate the effects of MIF antagonists on T lymphocyte activation, experiments were set up exactly as described above and, 48 hours later, treated and untreated lymphocytes were stained with an anti-CD25 antibody. CD25 is also known as the high affinity IL-2 receptor—a very well characterized and frequently marker of T lymphocyte activation.
In order to investigate the relative kinetics of when 4-IPP and ACT-003 are acting in blocking T lymphocyte activation, we repeated the experiment described above but harvested lymphocytes only 16 hours after anti-CD3 plating. At this early time point during T lymphocyte activation, CD69 is found to be expressed and is usually considered to be an “early marker” of lymphocyte activation.
Finally, to confirm that proliferation of CD4+ and CD8+ T lymphocytes is blocked by 4-IPP-based MIF antagonists, we repeated the experiment as described above, added labeled-BrdU to cells, stained with either labeled anti-CD4 or anti-CD8 antibodies and then assessed relative CD4/CD8 and BrdU labeling in each treatment group.

p53 = p53 up regulation, p53 luciferase assay; format: cell-based; conditions: 10 μM; FIG. 5
Experimental: The up regulation of p53 was determined using a commercially available p53 luciferase assay kit. 1×10^5 cells/ml were plated in a 24 well plate and allowed to adhere overnight. MIF antagonists were added to the cells at the indicated concentrations for 16 hours and transiently co-transfected with 0.125 μg/well of p53-responsive luciferase promoter plasmid (Promega, Madison, Wis.) together with 0.0125 μg/well Renilla pRL-null plasmid (Promega) using Lipofectamine (Invitrogen) transfection reagent. After 24 hrs, Firefly and Renilla luciferase activities were measured by the Dual Luciferase Reporter Assay System (Promega, Madison, Wis.) on a TD-20/20 luminometer (Turner Designs).

[4] = Solubility in varying solvents; format: physicochemical; conditions: 21 °C, 20-22° C.
[5] = tested on: DU145 human prostate xenografts; test: In vivo efficacy in DU145 xenograft tumor model; design: species or system athymic nude mice; conditions: daily IP 40 mg/kg for 4 weeks; FIG. 8
Experimental: Athymic nude mice at 7-8 weeks of age were used for the study. Mice were housed in microisolator housing, with food and water provided as libitum, and quarantined for 4 days prior to the initiation of the study. DU145 cells were maintained in McCoy's 5A medium supplemented with 10% fetal bovine serum and 2 mM glutamine. Cells at 80% confluence were harvested using 0.25% trypsin/EDTA solution, washed once with PBS and resuspended in a mixture of serum-free medium/Matrigel (1:1 by volume) at a density of 3×10^6 cells/100 μl. 4 groups of 10 mice each were used in the experiment. DU145 cells suspended in 100 μl of a mixture of medium/Matrigel (1:1) were subcutaneously implanted in the right flank region. Animals were monitored for tumor growth daily after cell implantation. When tumor volumes reached 80-100 mm^3, mice were randomized into 4 groups of 10 mice each using only mice having tumor volumes closest to the mean value. Tumor volumes were measured using the formula V=L×W×H×π/6, where L and W represent the longer and shorter diameters of the tumor and H represents the height of the tumor. Treatment began the day after randomization. Act-MIF-001, ACT-MIF-002, and ACT-MIF-003 were administered daily by IP injection at a dose of 40 mg/kg for 4 weeks. Throughout the entire study, tumor volumes were measured twice weekly and body weights once weekly.

| SMILES | Inhibition of MIF enzymatic activity in brain and lungs (MIF [1]; 40 mg/kg once a day for three days, IP and PO, FIG. 12) | Oral bioavailability (MIF [1]; judged from ex vivo MIF inhibition after IP and PO dosing) | Crossing of the blood brain barrier (MIF [1]; judged from ex vivo MIF inhibition in brain) | MIF liver enzyme inhibition (MIF [2]) | CD69 expression ([3]; 16 hours, FIGS. 17 and 18) | CD4 and CD8 T lymphocytes after anti-CD3 activation ([3]; 48 hours, FIGS. 13 and 14) | Anti-CD3-induced CD25 expression ([3]; 48 hours, FIGS. 15 and 16) | BrdU labeling of CD8+ and CD4+ T lymphocytes (proliferation) ([3]; 48 hours, FIGS. 19 and 20) | p53 regulation (p53) | solubility ([4]; aqueous with cosolvent or surfactant or cyclodextrin, Cremophor) | solubility ([4]; aqueous with cosolvent or surfactant or cyclodextrin, Ethanol/Tween 80) | solubility ([4]; oil or lipid, Corn oil) | solubility ([4]; organic solvent or mixture, DMSO) | solubility ([4]; organic solvent or mixture, Ethanol) | solubility ([4]; organic solvent or mixture, PEG-300) | solubility ([4]; organic solvent or mixture, Propane-diol) | Tumor growth inhibition [5] |
| --- | --- | --- | --- | --- | --- | --- | --- | --- | --- | --- | --- | --- | --- | --- | --- | --- | --- |
| COc1ccc(-c2cc(I)ncn2)c(F)c1 [ACT-MIF-002, 4-Iodo-6-(2-fluoro-4-methoxyphenyl)pyrimidine] | inhibits MIF enzymatic activity in both the brain and the lungs | orally bioavailable | crosses the brain blood barrier | significant in vivo inhibition of MIF |  |  |  |  |  |  |  |  |  |  |  |  |  |
| Fc1ccccc1-c1cc(I)ncn1 [ACT-MIF-003, 4-Iodo-6-(2-fluorophenyl)pyrimidine] |  |  |  |  | only a marginal effect on CD69 expression | significantly fewer CD4 and CD8 T lymphocytes | almost completely blocked the anti-CD3-induced CD25 expression | almost completely blocked BrdU labeling in both CD8+ and CD4+ T lymphocytes | implicated in p53 regulation | 15 mg/mL (≈ 50 mM) | 20 mg/mL (≈ 66.7 mM) | 15 mg/mL (≈ 50 mM) | 216 mg/mL (≈ 720 mM) | 85 mg/mL (≈ 283 mM) | 66 mg/mL (≈ 220 mM) | 25 mg/mL (≈ 83.3 mM) | significantly inhibited tumor growth |
